target: T1, human glucocorticoid receptor (GR) complex (Homo sapiens, UniProt P04150); assay: Glucocorticoid receptor competitive binding assay (fluorescence polarization); conditions: competition with TAMRA-labeled dexamethasone
T1 construct: made in house; host or cells: insect expression system (baculovirus lysate)
T1 sequence (P04150 1-777): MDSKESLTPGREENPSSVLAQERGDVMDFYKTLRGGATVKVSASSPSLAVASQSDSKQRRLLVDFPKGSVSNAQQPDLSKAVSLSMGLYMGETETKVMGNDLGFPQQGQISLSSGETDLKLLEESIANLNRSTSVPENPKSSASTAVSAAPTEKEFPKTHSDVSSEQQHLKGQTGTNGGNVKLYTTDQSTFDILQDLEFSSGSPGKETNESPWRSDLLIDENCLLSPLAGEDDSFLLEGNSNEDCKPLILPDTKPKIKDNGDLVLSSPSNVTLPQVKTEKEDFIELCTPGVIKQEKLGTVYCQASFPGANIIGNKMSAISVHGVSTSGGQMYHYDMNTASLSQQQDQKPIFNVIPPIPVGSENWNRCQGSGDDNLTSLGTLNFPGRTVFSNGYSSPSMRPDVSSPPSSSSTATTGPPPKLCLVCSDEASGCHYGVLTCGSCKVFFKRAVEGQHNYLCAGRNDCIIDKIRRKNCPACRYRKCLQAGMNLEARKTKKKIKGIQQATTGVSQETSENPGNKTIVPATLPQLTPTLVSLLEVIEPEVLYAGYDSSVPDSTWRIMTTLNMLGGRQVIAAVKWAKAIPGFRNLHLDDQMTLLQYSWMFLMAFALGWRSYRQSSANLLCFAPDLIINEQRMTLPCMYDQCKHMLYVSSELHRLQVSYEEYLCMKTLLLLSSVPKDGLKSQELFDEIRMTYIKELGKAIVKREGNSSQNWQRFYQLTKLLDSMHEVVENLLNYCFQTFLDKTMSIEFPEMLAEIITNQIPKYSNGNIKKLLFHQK
Protocol: Compounds of the invention were evaluated for binding to the steroid receptor by a fluorescence polarization competitive binding assay. Detailed descriptions for preparation of recombinant glucocorticoid receptor (GR) complex used in the assay is described in U.S. provisional application No. 60/291,877, filed May 18, 2001, and incorporated herein by reference in its entirety. Preparation of the tetramethyl rhodamine (TAMRA)-labeled dexamethasone probe was accomplished using a standard literature procedure (M. Pons et al., J. Steroid Biochem., 1985, 22, pp. 267-273).
A. Glucocorticoid Receptor Competitive Binding Assay
Step 1. Characterization of the Fluorescent Probe
The wavelengths for maximum excitation and emission of the fluorescent probe should first be measured. An example of such a probe is rhodamine (TAMRA)-labeled dexamethasone.
The affinity of the probe for the steroid receptor was then determined in a titration experiment. The fluorescence polarization value of the probe in assay buffer was measured on an SLM-8100 fluorometer using the excitation and emission maximum values described above. Aliquots of expression vector lysate were added and fluorescence polarization was measured after each addition until no further change in polarization value was observed. Non-linear least squares regression analysis was used to calculate the dissociation constant of the probe from the polarization values obtained for lysate binding to the probe.
Step 2. Screeningfor Inhibitors of Probe Binding
This assay uses fluorescence polarization (FP) to quantitate the ability of test compounds to compete with tetramethyl rhodamine (TAMRA)-labeled dexamethasone for binding to a human glucocorticoid receptor (GR) complex prepared from an insect expression system. The assay buffer was: 10 mM TES, 50 mM KCl, 20 mM Na2MoO4.2H2O, 1.5 mM EDTA, 0.04% w/v CHAPS, 10% v/v glycerol, 1 mM dithiothreitol, pH 7.4. Test compounds were dissolved to 1 mM in neat DMSO and then further diluted to 10×assay concentration in assay buffer supplemented with 10% v/v DMSO. Test compounds were serially diluted at 10×assay concentrations in 10% DMSO-containing buffer in 96-well polypropylene plates. Binding reaction mixtures were prepared in 96-well black Dynex microtiter plates by sequential addition of the following assay components to each well: […] of 10×test compound solution, 85 μL of GR-containing baculovirus lysate diluted 1:170 in assay buffer, and 50 μL of 15 nM TAMRA-labeled dexamethasone. Positive controls were reaction mixtures containing no test compound; negative controls (blanks) were reaction mixtures containing 0.7 μM to 2 μM dexamethasone. The binding reactions were incubated for 1 hour at room temperature and then read for fluorescence polarization in the LJL Analyst set to 550 nm excitation and 580 nm emission, with the Rhodamine 561 dichroic mirror installed. IC50 values were determined by iterative non-linear curve fitting of the FP signal data to a 4-parameter logistic equation.

IC50, ≤ 100 nM:
COc1ccc(F)cc1C(C)(C)CC(O)(Cc1cc(C(F)(F)F)ccc1F)C(F)(F)F (stereo not drawn) [1,1,1-Trifluoro-4-(5-fluoro-2-methoxyphenyl)-2-(2-fluoro-5-trifluoromethylbenzyl)-4-methylpentan-2-ol]
COc1ccc(F)cc1C(C)(C)CC(O)(Cc1ccc(C#N)cc1F)C(F)(F)F (stereo not drawn) [3-Fluoro-4-[4-(5-fluoro-2-methoxyphenyl)-2-hydroxy-4-methyl-2-trifluoromethylpentyl]benzonitrile]
CC(C)(CC(O)(Cc1ccc(Cl)c(Cl)c1)C(F)(F)F)c1cc(F)ccc1O (stereo not drawn) [2-[3-(3,4-Dichlorobenzyl)-4,4,4-trifluoro-3-hydroxy-1,1-dimethylbutyl]-4-fluorophenol]
CC(C)(CC(O)(Cc1cc(F)cc(C(F)(F)F)c1)C(F)(F)F)c1cc(F)ccc1O (stereo not drawn) [4-Fluoro-2-[4,4,4-trifluoro-3-(3-fluoro-5-trifluoromethylbenzyl)-3-hydroxy-1,1-dimethylbutyl]phenol]
COc1ccc(F)cc1C(C)(C)CC(O)(Cc1ccc(C#N)cc1)C(F)(F)F (stereo not drawn) [4-[4-(5-Fluoro-2-methoxyphenyl)-2-hydroxy-4-methyl-2-trifluoromethylpentyl]benzonitrile]
COc1ccc(F)cc1C(C)(C)CC(O)(Cc1cccc(C(F)(F)F)c1F)C(F)(F)F (stereo not drawn) [1,1,1-Trifluoro-4-(5-fluoro-2-methoxyphenyl)-2-(2-fluoro-3-trifluoromethylbenzyl)-4-methylpentan-2-ol]
CC(C)(CC(O)(Cc1cc(C(F)(F)F)cc(Cl)c1F)C(F)(F)F)c1cc(F)ccc1O (stereo not drawn) [2-[3-(3-Chloro-2-fluoro-5-trifluoromethylbenzyl)-4,4,4-trifluoro-3-hydroxy-1,1-dimethylbutyl]-4-fluorophenol]
CC(C)(CC(O)(Cc1ccc(Cl)c(Cl)c1)C(F)(F)F)c1cccc(Cl)c1 (stereo not drawn) [4-(3-Chlorophenyl)-2-(3,4-dichlorobenzyl)-1,1,1-trifluoro-4-methylpentan-2-ol]
COc1ccc(F)cc1C(C)(C)CC(O)(Cc1cc(Cl)cc(C#N)c1)C(F)(F)F (stereo not drawn) [3-Chloro-5-[4-(5-fluoro-2-methoxyphenyl)-2-hydroxy-4-methyl-2-trifluoromethylpentyl]benzonitrile]
COc1ccc(C(C)(C)CC(O)(Cc2ccc(C#N)cc2Cl)C(F)(F)F)cc1 (stereo not drawn) [3-Chloro-4-[2-hydroxy-4-(4-methoxyphenyl)-4-methyl-2-trifluoromethylpentyl]benzonitrile]
COc1ccc(F)cc1C(C)(C)CC(O)(Cc1cc(F)cc(F)c1F)C(F)(F)F (stereo not drawn) [1,1,1-Trifluoro-4-(5-fluoro-2-methoxyphenyl)-4-methyl-2-(2,3,5-trifluorobenzyl)pentan-2-ol]
CC(C)(CC(O)(Cc1cc(C(F)(F)F)cc(Cl)c1F)C(F)(F)F)c1cc([N+](=O)[O-])cc2c1OCC2 (stereo not drawn)
CC(C)(CC(O)(Cc1cc(Cl)cc(Cl)c1)C(F)(F)F)c1ccccc1 (stereo not drawn) [2-(3,5-Dichlorobenzyl)-1,1,1-trifluoro-4-methyl-4-phenylpentan-2-ol]
CC(C)(CC(O)(Cc1ccc(O)cc1)C(F)(F)F)c1cc(F)ccc1O (stereo not drawn) [4-Fluoro-2-[4,4,4-trifluoro-3-hydroxy-3-(4-hydroxybenzyl)-1,1-dimethylbutyl]phenol]
CC(C)(CC(O)(Cc1ccc(C#N)cc1Cl)C(F)(F)F)c1ccc(O)cc1 (stereo not drawn) [3-Chloro-4-[2-hydroxy-4-(4-hydroxyphenyl)-4-methyl-2-trifluoromethylpentyl]benzonitrile]
CC(C)(CC(O)(Cc1ccc(F)c(F)c1)C(F)(F)F)c1cc(F)ccc1O (stereo not drawn) [2-[3-(3,4-Difluorobenzyl)-4,4,4-trifluoro-3-hydroxy-1,1-dimethylbutyl]4-fluorophenol]
COc1ccc(F)cc1C(C)(C)CC(O)(C(O)c1cc(C)cc(C)c1)C(F)(F)F (stereo not drawn) [1-(3,5-Dimethylphenyl)-4-(5-fluoro-2-methoxyphenyl)-4-methyl-2-trifluoromethylpentane-1,2-diol]
COc1ccc(F)cc1C(C)(C)CC(O)(Cc1ccc(C)c(C)c1)C(F)(F)F (stereo not drawn) [2-(3,4-Dimethylbenzyl)-1,1,1-trifluoro-4-(5-fluoro-2-methoxyphenyl)-4-methylpentan-2-ol]
COc1ccc(F)cc1C(C)(C)CC(O)(Cc1ccccc1Br)C(F)(F)F (stereo not drawn) [2-(2-Bromobenzyl)-1,1,1-trifluoro-4-(5-fluoro-2-methoxyphenyl)-4-methylpentan-2-ol]
CC(C)(CC(O)(Cc1ccc(-c2ccccc2)cc1)C(F)(F)F)c1cc(F)ccc1O (stereo not drawn) [2-(3-Biphenyl-4-ylmethyl-4,4,4-trifluoro-3-hydroxy-1,1-dimethylbutyl)-4-fluorophenol]
Cc1cc(CC(O)(CC(C)(C)c2cc(F)ccc2O)C(F)(F)F)ccc1F (stereo not drawn) [4-Fluoro-2-[4,4,4-trifluoro-3-(4-fluoro-3-methylbenzyl)-3-hydroxy-1,1-dimethylbutyl]phenol]
CC(C)(CC(O)(Cc1cc(C(F)(F)F)cc(Cl)c1F)C(F)(F)F)c1cccc(Cl)c1 (stereo not drawn) [2-(3-Chloro-2-fluoro-5-trifluoromethylbenzyl)-4-(3-chlorophenyl)-1,1,1-trifluoro-4-methylpentan-2-ol]
CC(C)(CC(O)(Cc1cc(C(F)(F)F)cc(Cl)c1F)C(F)(F)F)c1ccccc1 (stereo not drawn) [2-(3-Chloro-2-fluoro-5-trifluoromethylbenzyl)-1,1,1-trifluoro-4-methyl-4-phenylpentan-2-ol]
COc1ccc(F)cc1C(C)(C)CC(O)(Cc1cc(Cl)ccc1Cl)C(F)(F)F (stereo not drawn) [2-(2,5-Dichlorobenzyl)-1,1,1-trifluoro-4-(5-fluoro-2-methoxyphenyl)-4-methylpentan-2-ol]
COc1ccc(F)cc1C(C)(C)CC(O)(C(=O)Cc1cc(C)cc(C)c1)C(F)(F)F (stereo not drawn) [1-(3,5-Dimethylphenyl)-5-(5-fluoro-2-methoxyphenyl)-3-hydroxy-5-methyl-3-trifluoromethylhexan-2-one]
COc1ccc(F)cc1C(C)(C)CC(O)(Cc1ccc(Cl)cc1Cl)C(F)(F)F (stereo not drawn) [2-(2,4-Dichlorobenzyl)-1,1,1-trifluoro-4-(5-fluoro-2-methoxyphenyl)-4-methylpentan-2-ol]
CC(C)(CC(O)(Cc1cc(C(F)(F)F)cc(C(F)(F)F)c1)C(F)(F)F)c1cc(F)ccc1O (stereo not drawn) [2-[3-(3,5-Bis-trifluoromethylbenzyl)-4,4,4-trifluoro-3-hydroxy-1,1-dimethylbutyl]-4-fluorophenol]
Cc1cccc(CC(O)(CC(C)(C)c2cc(F)ccc2O)C(F)(F)F)c1 (stereo not drawn) [4-Fluoro-2-[4,4,4-trifluoro-3-hydroxy-1,1-dimethyl-3-(3-methylbenzyl)butyl]phenol]
COc1ccc(F)cc1C(C)(C)CC(O)(Cc1cccc(Cl)c1Cl)C(F)(F)F (stereo not drawn) [2-(2,3-Dichlorobenzyl)-1,1,1-trifluoro-4-(5-fluoro-2-methoxyphenyl)-4-methylpentan-2-ol]
COc1ccc(F)cc1C(C)(C)CC(O)(Cc1cccc(Br)c1)C(F)(F)F (stereo not drawn) [2-(3-Bromobenzyl)-1,1,1-trifluoro-4-(5-fluoro-2-methoxyphenyl)-4-methylpentan-2-ol]

— US7268152B2, “Glucocorticoid mimetics, methods of making them, pharmaceutical compositions, and uses thereof” (Boehringer Ingelheim Pharmaceuticals, Inc., priority 2002, dated 2007)
